Assay results: US7247628B2, “Cannabinoid receptor ligands and uses thereof” (Pfizer, Inc., priority 2002, dated 2007)

Molecular target: T1, CB-1 receptor (Homo sapiens, UniProt P21554)
T1 construct: expressed in transfected cells; host or cells: HEK 293 cells (membrane preparation); cDNA obtained from Dr. Debra Kendall, University of Connecticut
Assay: Human CB-1 receptor binding ([3H]SR141716A displacement)
Details: CB-1 receptor binding assay, inhibition of [3H] SR141716A binding
Experimental: Human embryonic kidney 293 (HEK 293) cells transfected with the CB-1 receptor cDNA (obtained from Dr. Debra Kendall, University of Connecticut) were harvested in homogenization buffer (10 mM EDTA, 10 mM EGTA, 10 mM Na Bicarbonate, protease inhibitors; pH=7.4), and homogenized with a Dounce Homogenizer. The homogenate was then spun at 1,000×g for 5 minutes at 4° C. The supernatant was recovered and centrifuged at 25,000×G for 20 minutes at 4° C. The pellet was then re-suspended in 10 ml of homogenization buffer and re-spun at 25,000×G for 20 minutes at 4° C. The final pellet was re-suspended in 1 ml of TME (25 mM Tris buffer (pH=7.4) containing 5 mM MgCl2 and 1 mM EDTA). A protein assay was performed and 200 μl of tissue totaling 20 μg was added to the assay.
The test compounds were diluted in drug buffer (0.5% BSA, 10% DMSO and TME) and then 25 μl were added to a deep well polypropylene plate. [^3H] SR141716A was diluted in a ligand buffer (0.5% BSA plus TME) and 25 μl were added to the plate. The plates were covered and placed in an incubator at 30° C. for 60 minutes. At the end of the incubation period 250 μl of stop buffer (5% BSA plus TME) was added to the reaction plate. […] In the morning the filters were counted on a Wallac Betaplate™ counter (available from PerkinElmer Life Sciences™, Boston, Mass.).

T1 sequence (P21554 whole entry): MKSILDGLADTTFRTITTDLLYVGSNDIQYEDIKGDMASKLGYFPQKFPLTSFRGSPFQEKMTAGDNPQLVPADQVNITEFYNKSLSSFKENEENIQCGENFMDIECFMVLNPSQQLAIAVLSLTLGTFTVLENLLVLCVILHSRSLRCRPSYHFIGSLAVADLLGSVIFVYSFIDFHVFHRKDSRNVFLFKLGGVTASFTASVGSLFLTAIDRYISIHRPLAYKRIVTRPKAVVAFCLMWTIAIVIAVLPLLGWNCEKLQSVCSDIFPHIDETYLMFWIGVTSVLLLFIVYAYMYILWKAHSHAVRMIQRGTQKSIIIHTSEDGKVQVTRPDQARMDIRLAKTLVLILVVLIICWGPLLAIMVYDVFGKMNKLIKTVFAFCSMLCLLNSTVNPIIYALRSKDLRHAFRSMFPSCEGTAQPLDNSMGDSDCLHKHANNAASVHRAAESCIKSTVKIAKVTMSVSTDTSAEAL

- binding affinity: 79 nM
Compound: Cc1cccc(CN2CCOC(c3nn(-c4ccccc4Cl)c(-c4ccc(Cl)cc4)c3C)C2)n1 (stereo not shown) [Example 5A-6, 2-[1-(2-Chlorophenyl)-5-(4-chlorophenyl)-4-methyl-1H-pyrazol-3-yl]-4-(6-methyl-pyridin-2-ylmethyl)-morpholine]
